Results: patent publication EP0601187A1, “NOVEL ANTIBIOTIC AND PRODUCTION AND USE THEREOF” (HIGETA SHOYU CO., LTD., priority 1992, dated 1993)
In brackets after ≈: the same amount, converted by molar mass. Numbered stars: 1 amine (or outer) side, 2 acyl side, 3 side chain; on linkers, the order of the positions; unused ones are H or OH. Square brackets hold non-standard residues; d marks the D form. Peptide text beside a SMILES is read from it. Gly(Dodecyl) = CCCCCCCCCCCC[C@H](N)C(=O)O; X1 = CCCCCCCCCCCCC[C@H](N[*:1])C(=O)[*:2]

Tests used:
[1] = system: Diaporothe citiri IFO9170; settings: pH 6.8
[2] = system: Aspergillus flavas IAM2044; settings: pH 6.8
[3] = system: Candida albicans IFM4009, Aspergillus fumigatus Tsukuba No. 12, Cryptococcus neoformans 145A; experiment: Effectiveness in systemically fungi-infected mice; format: in vivo; settings: mice intravenously inoculated with clinically isolated strains
Text: As one example of the test of testing the effectiveness of the active substances, HUT57A or HUT57B may be administered to systemically fungi-infected mice, to which various clinically isolated strains (Candida albicans IFM4009, Aspergillus fumigatus Tsukuba No. 12, Cryptococcus neoformans 145A) were intravenously inoculated, whereby the effectiveness of administered the substance may be examined.

[4] = system: Fusarium oxysporum HUT5015; settings: pH 6.8
[5] = system: Trichosporon cutaneum IFO1500; settings: pH 6.8
ddy-N mice = experiment: Acute toxicity test, single intravenous injection; format: in vivo
Experimental: In the next test, mice of the same kind as mentioned above were used. Each of HUT57A and HUT57B was dissolved in DMSO (dimethylsulfoxide)-castor oil-5 % Glc solution, and the resulting solution was injected to the caudal vein of each of the five male mice once or plural times. For the single injection, the solution was administered to the mice each in an amount of 200 mg per kg of the body weight; and for the plural injections, it was administered to them 14 times each in an amount of 30 mg/kg/day.

[6] = system: Candida tropicalis IFO3256; settings: IFO3256, pH 6.8
[7] = system: Trichophyton rubrum IFO9185; settings: pH 6.8
[8] = system: Botrytis cinerea IFO31831; settings: pH 6.8
Candida albicans DUC1001 = experiment: Antifungal activity in vitro by counting the number of the living cells; format: cell-based; settings: just after addition at 25, 40 and 80 µg/ml
[9] = system: Aspergillus fumigatus IAM2612; settings: IAM2612, pH 6.8
[10] = system: Fusarium solani ATCC11712; settings: ATCC11712, pH 6.8
[11] = system: Mucor guilliermondii IFO9403; settings: pH 6.8
[12] = system: Trichophyton mentagrophytes IFO6124; settings: pH 6.8
[13] = system: Cryptococcus neoformans IFO1320; settings: IFO1320, pH 6.8

## CCCCCCCCCCCC[C@@H]1NC(=O)[C@H](CCC(N)=O)NC(=O)[C@H](CC(N)=O)NC(=O)[C@H](Cc2ccc(O)cc2)NC(=O)[C@H](CC(N)=O)NC(=O)[C@@H]2CCCN2C(=O)[C@H](CO)NC(=O)[C@H](CC(N)=O)NC1=O [HUT57A, X-Asn-Ser-Pro-Asn-Tyr-Asn-Gln] (cyclo([Gly(Dodecyl)]NSPNYNQ))
[1]
  MIC: 1.0 µg/mL (≈ 0.959 µM)
[2]
  MIC: 2.3 µg/mL (≈ 2.2 µM)
[3]
  effectiveness to systemic mycosis in mice: effective
[4]
  MIC: 1.2 µg/mL (≈ 1.15 µM)
Hemolyzation Activity
  Hemolyzation Activity: -
[5]
  MIC: 23.0 µg/mL (≈ 22 µM)
ddy-N mice
  LD₅₀ by single intravenous injection: ≥ 200 mg/kg
[6]
  MIC: 11.4 µg/mL (≈ 10.9 µM)
[7]
  MIC: 6.2 µg/mL (≈ 5.94 µM)
[8]
  MIC: 2.2 µg/mL (≈ 2.11 µM)
Candida albicans DUC1001
  number of the living cells: noticeably decreased
[9]
  MIC: 1.3 µg/mL (≈ 1.25 µM)
[10]
  MIC: 2.8 µg/mL (≈ 2.68 µM)
[11]
  MIC: 1.2 µg/mL (≈ 1.15 µM)
[12]
  MIC: 10.0 µg/mL (≈ 9.59 µM)
[13]
  MIC: 6.0 µg/mL (≈ 5.75 µM)

## CCCCCCCCCCCCC[C@@H]1NC(=O)[C@H](CCC(N)=O)NC(=O)[C@H](CC(N)=O)NC(=O)[C@H](Cc2ccc(O)cc2)NC(=O)[C@H](CC(N)=O)NC(=O)[C@@H]2CCCN2C(=O)[C@H](CO)NC(=O)[C@H](CC(N)=O)NC1=O [HUT57B, X-Asn-Ser-Pro-Asn-Tyr-Asn-Gln] (cyclo([X1]NSPNYNQ))
[1]
  MIC: 1.0 µg/mL (≈ 0.946 µM)
[2]
  MIC: 2.4 µg/mL (≈ 2.27 µM)
[3]
  effectiveness to systemic mycosis in mice: effective
[4]
  MIC: 1.2 µg/mL (≈ 1.14 µM)
Hemolyzation Activity
  Hemolyzation Activity: -
[5]
  MIC: 23.0 µg/mL (≈ 21.8 µM)
ddy-N mice
  LD₅₀ by single intravenous injection: ≥ 200 mg/kg
[6]
  MIC: 11.2 µg/mL (≈ 10.6 µM)
[7]
  MIC: 5.4 µg/mL (≈ 5.11 µM)
[8]
  MIC: 2.1 µg/mL (≈ 1.99 µM)
Candida albicans DUC1001
  number of the living cells: noticeably decreased
[9]
  MIC: 1.3 µg/mL (≈ 1.23 µM)
[10]
  MIC: 2.8 µg/mL (≈ 2.65 µM)
[11]
  MIC: 1.2 µg/mL (≈ 1.14 µM)
[12]
  MIC: 10.0 µg/mL (≈ 9.46 µM)
[13]
  MIC: 5.2 µg/mL (≈ 4.92 µM)
